Source: article PMC4547793, “Trichodysplasia spinulosa-Associated Polyomavirus Uses a Displaced Binding Site on VP1 to Engage Sialylated Glycolipids” (PLoS Pathogens, 2015)

Assays:
Format in all cases: binding
TSPyV VP1 [1] = target: T1, TSPyV VP1 (Trichodysplasia spinulosa-associated polyomavirus, UniProt E2ESL7); assay: X-ray crystal structure, soaked ([…] Å); details: 10 mM glycan, 15 min soak of native crystals, reservoir pH 5.0; BC2-loop site with ccw DE-loop
T1 construct: N- and C-terminally truncated VP1 (aa 31-304), pET28b, E. coli BL21(DE3); unassembled homopentamer

TSPyV VP1 [2] = target: T1, TSPyV VP1; assay: X-ray co-crystal structure ([…] Å); details: 10 mM glycan, co-crystallization, 20 °C, reservoir pH 5.0; BC2-loop site with ccw DE-loop
TSPyV VP1 [3] = target: T1, TSPyV VP1; assay: X-ray co-crystal structure ([…] Å); also STD NMR; details: 10 mM glycan, co-crystallization, 20 °C, reservoir pH 5.0; STD NMR pH 7.4, 288 K; BC2-loop site with ccw DE-loop

CC(=O)N[C@H]1[C@H]([C@H](O)[C@H](O)CO)O[C@@](O[C@H]2[C@@H](O)[C@@H](CO)O[C@@H](O[C@H]3[C@H](O)[C@@H](O)C(O)O[C@@H]3CO)[C@@H]2O)(C(=O)O)C[C@@H]1O (stereo partly drawn) [3’SL]
X-ray crystal structure, soaked (1.55 Å) (TSPyV VP1 [1]): 4U62 (TSPyV VP1-3’SL)

CC(=O)N[C@H]1[C@H]([C@H](O)[C@H](O)CO)O[C@@](OC[C@H]2O[C@@H](O[C@H]3[C@H](O)[C@@H](O)C(O)O[C@@H]3CO)[C@H](O)[C@@H](O)[C@H]2O)(C(=O)O)C[C@@H]1O (stereo partly drawn) [6’SL]
X-ray co-crystal structure (1.65 Å) (TSPyV VP1 [2]): 4U61 (TSPyV VP1-6’SL)

CC(=O)N[C@H]1[C@H](O[C@@H]2[C@H](O[C@]3(C(=O)O)C[C@H](O)[C@@H](NC(C)=O)[C@H]([C@H](O)[C@H](O)CO)O3)[C@@H](O)[C@H](O[C@H]3[C@H](O)[C@@H](O)C(O)O[C@@H]3CO)O[C@@H]2CO)O[C@H](CO)[C@H](O)[C@@H]1O[C@@H]1O[C@H](CO)[C@H](O)[C@H](O)[C@H]1O (stereo partly drawn) [GM1 glycan]
X-ray co-crystal structure (1.50 Å); also STD NMR (TSPyV VP1 [3]): 4U60 (TSPyV VP1-GM1 glycan)
